The values that follow come from ChEMBL document CHEMBL1126467, “Discovery of dual activity molecules with thromboxane antagonist and thromboxane synthase inhibitory activity” (Bioorg Med Chem Lett, 1992).

Test [1] deals with T1, Thromboxane-A synthase (Homo sapiens, UniProt P24557).
T1 sequence (P24557 whole entry): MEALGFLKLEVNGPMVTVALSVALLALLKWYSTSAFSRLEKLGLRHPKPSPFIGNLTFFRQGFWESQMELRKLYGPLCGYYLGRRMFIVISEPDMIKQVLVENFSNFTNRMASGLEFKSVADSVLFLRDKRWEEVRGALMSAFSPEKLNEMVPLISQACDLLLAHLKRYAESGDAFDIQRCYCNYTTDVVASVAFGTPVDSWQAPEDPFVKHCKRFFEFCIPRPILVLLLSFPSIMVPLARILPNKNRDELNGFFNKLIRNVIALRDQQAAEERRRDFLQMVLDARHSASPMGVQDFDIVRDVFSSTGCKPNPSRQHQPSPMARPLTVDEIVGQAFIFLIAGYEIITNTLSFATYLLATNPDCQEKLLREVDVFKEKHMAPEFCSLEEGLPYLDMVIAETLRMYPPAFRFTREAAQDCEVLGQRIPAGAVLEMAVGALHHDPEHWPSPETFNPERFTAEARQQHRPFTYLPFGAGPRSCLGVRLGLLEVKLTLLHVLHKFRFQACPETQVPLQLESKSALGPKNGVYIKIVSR
Briefly: Human microsomal Thromboxane synthase inhibition was determined by inhibiting TXB2 formation from [14C]- labelled arachidonic acid.

For test [2], the target named is T2, Thromboxane A2 receptor (Homo sapiens, UniProt P21731).
T2 sequence (P21731 whole entry): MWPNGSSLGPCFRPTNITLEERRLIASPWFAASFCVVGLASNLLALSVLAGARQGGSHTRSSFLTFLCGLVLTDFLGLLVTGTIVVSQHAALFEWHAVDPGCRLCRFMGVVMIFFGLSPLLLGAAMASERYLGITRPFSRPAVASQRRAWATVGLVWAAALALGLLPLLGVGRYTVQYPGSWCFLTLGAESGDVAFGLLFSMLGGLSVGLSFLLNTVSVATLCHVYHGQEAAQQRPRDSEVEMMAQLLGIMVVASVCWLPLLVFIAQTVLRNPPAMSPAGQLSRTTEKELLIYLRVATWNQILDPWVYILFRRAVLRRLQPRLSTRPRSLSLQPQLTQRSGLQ
Briefly: Tested for thromboxane antagonist potency (pA2) against […] induced platelet aggregation using human platelet rich plasma. The test is classed as functional, cell-free. As to conditions: read-out: pA2 (converted); call rule not given here.

Test [3] has as its target T3, Thromboxane A2 receptor (Rattus norvegicus) (UniProt P34978).
T3 sequence (whole entry): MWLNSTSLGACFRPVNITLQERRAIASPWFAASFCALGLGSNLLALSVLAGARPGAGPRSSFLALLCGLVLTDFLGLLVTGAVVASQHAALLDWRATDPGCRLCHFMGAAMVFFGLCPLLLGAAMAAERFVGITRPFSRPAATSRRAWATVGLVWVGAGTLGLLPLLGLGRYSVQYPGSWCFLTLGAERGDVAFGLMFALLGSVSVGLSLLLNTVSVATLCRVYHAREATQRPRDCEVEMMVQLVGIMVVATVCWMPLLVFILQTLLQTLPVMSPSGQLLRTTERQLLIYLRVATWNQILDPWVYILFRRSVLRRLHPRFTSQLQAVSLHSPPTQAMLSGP
The test is described as follows: Compound was tested for in vivo inhibition of thromboxane A2 receptor inhibition 1 hr after administration of 10 mg/kg orally to rat. The test is classed as organism-based. Details: dose 10 mg/kg. As to conditions: at 10 mg/kg.

Test [4] addresses T3, Thromboxane A2 receptor (Rattus norvegicus). Briefly: Compound was tested for in vivo inhibition of thromboxane-A2 receptor inhibition 5 hr after administration of 10 mg/kg orally to rat. The test is classed as organism-based. On the set-up: dose 10 mg/kg. Particulars: at 10 mg/kg.
For test [5] the target is unchanged. Briefly: Compound was tested for in vivo inhibition of thromboxane-A2 receptor inhibition 3 hr after administration of 10 mg/kg orally to rat. The test is classed as organism-based. On the set-up: dose 10 mg/kg. As to conditions: at 10 mg/kg.
Test [6] addresses T1, Thromboxane-A synthase. The test is described as follows: Human microsomal Thromboxane synthase inhibition was determined by inhibiting TXB2 formation from [14C]- labelled arachidonic acid; Not active.

SMILES strings stand for the structures.

`O=C(O)CC1CCCc2c1n(Cc1ccc(OCCCC#Cc3cccnc3)cc1)c1ccc(F)cc21` (stereo not drawn): the IC50 in test [1] was found to be 600 nM. The Kb in test [2] was 158 nM.

In test [1], `O=C(O)CC1CCCc2c1n(Cc1cccc(OCCCC#Cc3cccnc3)c1)c1ccc(F)cc21` (stereo not drawn) came in with an IC50 of 50 nM. The inhibition in test [3] stood at 86%; in test [4], 71%; in test [5], 77%. The Kb in test [2] was 1000 nM.

In test [1], `O=C(O)CC1CCCc2c1n(Cc1cccc(OCCCCc3cccnc3)c1)c1ccc(F)cc21` (stereo not drawn) showed an IC50 of 100 nM. For the same compound, the Kb in test [2] was 501 nM.

As to `O=C(O)CC1CCCc2c1n(Cc1cccc(OCCCCC#Cc3cccnc3)c1)c1ccc(F)cc21` (stereo not drawn), the IC50 in test [1] was 40 nM. Moreover, the Kb in test [2] is 2510 nM.

As to `O=C(O)CC1CCCc2c1n(Cc1cccc(CCCCCc3cccnc3)c1)c1ccc(F)cc21` (stereo not drawn), the half-inhibitory concentration (IC50) in test [1] stood at 500 nM. Further, the Kb in test [2] was 3980 nM.

As to `O=C(O)CC1CCCc2c1n(Cc1ccc(OCCCCC#Cc3cccnc3)cc1)c1ccc(F)cc21` (stereo not drawn), the IC50 in test [1] was determined as 400 nM. The Kb in test [2] was 200 nM.

In turn, `O=C(O)CC1CCCc2c1n(Cc1cccc(OCCCCCc3cccnc3)c1)c1ccc(F)cc21` (stereo not drawn) showed an IC50 in test [1] of 300 nM. In test [2], the Kb was 3160 nM.

Turning to `O=C(O)CC1CCCc2c1n(Cc1ccc(Cl)cc1)c1ccc(F)cc21` (stereo not drawn), the half-maximal inhibitory concentration (IC50) entry in test [6] was “Not Active”. Moreover, the Kb in test [2] was 79.4 nM.

`O=C(O)CC1CCCc2c1n(Cc1cccnc1)c1ccc(F)cc21` (stereo not drawn): the half-inhibitory concentration (IC50) result in test [6] is recorded as “Not Active”. Moreover, the Kb in test [2] is 3160 nM.

`O=C(O)CC1CCCc2c1n(Cc1cccc(OCCC/C=C\c3cccnc3)c1)c1ccc(F)cc21` (stereo not drawn) displayed a half-inhibitory concentration (IC50) in test [1] of 200 nM. For the same compound, the Kb in test [2] is 631 nM.
